target: T1, Axl (Homo sapiens, UniProt P30530); experiment: Axl NanoBRET intracellular kinase assay (intracellular binding, K-5 tracer displacement); set-up: host or cells: HEK-293; details: HEK-293 cells transfected with Axl-NanoLuc, 0.35 μM K-5 NanoBRET tracer; read-out: Cell Binding AXL
T1 sequence (P30530 26-894): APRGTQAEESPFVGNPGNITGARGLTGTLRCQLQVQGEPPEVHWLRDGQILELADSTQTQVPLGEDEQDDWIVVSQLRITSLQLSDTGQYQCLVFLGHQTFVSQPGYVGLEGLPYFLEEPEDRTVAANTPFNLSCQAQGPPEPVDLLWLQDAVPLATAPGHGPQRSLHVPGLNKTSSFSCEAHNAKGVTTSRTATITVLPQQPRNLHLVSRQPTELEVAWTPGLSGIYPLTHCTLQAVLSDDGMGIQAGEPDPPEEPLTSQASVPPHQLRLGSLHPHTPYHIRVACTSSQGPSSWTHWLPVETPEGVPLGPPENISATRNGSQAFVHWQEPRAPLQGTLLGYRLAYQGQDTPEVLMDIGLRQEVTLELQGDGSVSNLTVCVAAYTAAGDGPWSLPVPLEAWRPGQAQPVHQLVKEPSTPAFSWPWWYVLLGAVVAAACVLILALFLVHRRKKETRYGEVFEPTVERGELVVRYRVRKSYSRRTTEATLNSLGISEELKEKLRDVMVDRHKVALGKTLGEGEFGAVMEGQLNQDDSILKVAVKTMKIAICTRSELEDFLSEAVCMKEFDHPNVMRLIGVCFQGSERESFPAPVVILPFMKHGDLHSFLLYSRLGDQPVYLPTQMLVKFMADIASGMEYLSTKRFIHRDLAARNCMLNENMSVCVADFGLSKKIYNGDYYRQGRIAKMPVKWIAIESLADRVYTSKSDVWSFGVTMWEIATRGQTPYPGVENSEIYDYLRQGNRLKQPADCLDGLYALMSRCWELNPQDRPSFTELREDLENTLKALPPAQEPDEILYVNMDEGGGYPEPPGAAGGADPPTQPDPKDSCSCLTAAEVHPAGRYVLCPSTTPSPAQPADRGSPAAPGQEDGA
Experimental: Measuring Intracellular Binding of Axl Inhibitors
Axl NanoBRET™ intracellular kinase assay (Promega, N2540) was performed according to manufacturer's recommendation. In brief, HEK-293 cells are transiently transfected with Ax1-NanoLuc fusion vector (Promega, NV1071), utilizing Fugene HD transfection reagent (Promega, E2311) a day before experiment following manufacturer's recommendation.
The day of the assay, the cells were collected and resuspended in Opti-MEM media (ThermoFisher, 31985070) at 2e5 cells/mL concentration. Testing compounds were serial diluted and dispensed into a white 384 well polystyrene plate at 200 nL in 100% DMSO. 40 μL of resuspended cells is then added per well for a final condition of 8K cells/well with 0.5% DMSO. After one-hour compound pre-incubation at 37° C. and 5% CO2, cells were further incubated with 0.35 μM K-5 NanoBRET tracer for two-hours at 37° C. and 5% CO2. […] of 3× substrate plus Inhibitor solution was prepared according to kits manual and added to the cells followed by a 30 second pulse centrifugation spin. The plate was then immediately read utilizing an Envision (Perkin Elmer) plate reader. The BRET signal is measured by taking the ratio of the emissions reading at 610 nm and 450 nm. Compound binding is based on the decrease BRET signal caused by the displacement of the K-5 tracer. […] ICso value of compounds was determined by 4-parameter non-linear regression fitting of percent activity in GraphPad Prism software.

SMILES	IC50 [nM]
CC(C)(O)c1cccnc1-c1ccc(-c2c[nH]c3ncc(-c4ccc5c(c4)CC[C@@H](N4C6COCC4C6)CC5)cc23)cc1 [Example 95, 2-[2-(4-{5-[(7S)-7-{3-Oxa-6-azabicyclo[3.1.1]heptan-6-yl}-6,7,8,9-tetrahydro-5H-benzo[7]annulen-2-yl]-1H-pyrrolo[2,3-b]pyridin-3-yl}phenyl)pyridin-3-yl]propan-2-ol]	< 100
COc1cccnc1-c1ccc(-c2n[nH]c3ncc(-c4ccc5c(c4)CC[C@@H](N4C6COCC4C6)CC5)cc23)cc1 [Example 166, 6-[(7S)-2-{3-[4-(3-Methoxypyridin-2-yl)phenyl]-1H-pyrazolo[3,4-b]pyridin-5-yl}-6,7,8,9-tetrahydro-5H-benzo[7]annulen-7-yl]-3-oxa-6-azabicyclo[3.1.1]heptane]	< 100
COc1cccnc1-c1ccc(-c2c[nH]c3ncc(-c4ccc5c(c4)CC[C@@H](N4C6COCC4C6)CC5)cc23)cc1 [Example 164, 6-[(7S)-2-{3-[4-(3-Methoxypyridin-2-yl)phenyl]-1H-pyrrolo[2,3-b]pyridin-5-yl}-6,7,8,9-tetrahydro-5H-benzo[7]annulen-7-yl]-3-oxa-6-azabicyclo[3.1.1]heptane]	< 100
Cc1cncnc1-c1ccc(-c2n[nH]c3ncc(-c4ccc5c(c4)CC[C@@H](N4C6COCC4C6)CC5)cc23)cc1 [Example 174, 6-[(7S)-2-{3-[4-(5-Methylpyrimidin-4-yl)phenyl]-1H-pyrazolo[3,4-b]pyridin-5-yl}-6,7,8,9-tetrahydro-5H-benzo[7]annulen-7-yl]-3-oxa-6-azabicyclo[3.1.1]heptane]	< 100
c1ccc(-c2ccc(-c3n[nH]c4ncc(-c5ccc6c(c5)CC[C@@H](N5C7COCC5C7)CC6)cc34)cc2)nc1 [Example 154, 6-[(7S)-2-{3-[4-(Pyridin-2-yl)phenyl]-2H-pyrazolo[3,4-b]pyridin-5-yl}-6,7,8,9-tetrahydro-5H-benzo[7]annulen-7-yl]-3-oxa-6-azabicyclo[3.1.1]heptane]	< 100
c1ccc(-c2ccc(-c3c[nH]c4ncc(-c5ccc6c(c5)CC[C@@H](N5C7COCC5C7)CC6)cc34)cc2)nc1 [Example 155, 6-[(7S)-2-{3-[4-(Pyridin-2-yl)phenyl]-1H-pyrrolo[2,3-b]pyridin-5-yl}-6,7,8,9-tetrahydro-5H-benzo[7]annulen-7-yl]-3-oxa-6-azabicyclo[3.1.1]heptane]	< 100
CN(C)C(=O)c1ccccc1-c1ccc(-c2n[nH]c3ncc(-c4ccc5c(c4)CC[C@@H](N4C6COCC4C6)CC5)cc23)cc1 [Example 12, N,N-Dimethyl-4′-{5-[(7S)-7-{3-oxa-6-azabicyclo[3.1.1]heptan-6-yl}-6,7,8,9-tetrahydro-5H-benzo[7]annulen-2-yl]-2H-pyrazolo[3,4-b]pyridin-3-yl}-[1,1′-biphenyl]-2-carboxamide]	< 100
Cc1cc(-c2n[nH]c3ncc(-c4ccc5c(c4)CC[C@@H](N4C6COCC4C6)CC5)cc23)ccc1-c1ccccn1 [Example 159, 6-[(7S)-2-{3-[3-Methyl-4-(pyridin-2-yl)phenyl]-2H-pyrazolo[3,4-b]pyridin-5-yl}-6,7,8,9-tetrahydro-5H-benzo[7]annulen-7-yl]-3-oxa-6-azabicyclo[3.1.1]heptane]	100 to 1000
CN(C)C(=O)c1ccccc1-c1ccc(-c2c[nH]c3ncc(-c4ccc5c(c4)CC[C@@H](N4C6COCC4C6)CC5)cc23)cn1 [Example 170, N,N-Dimethyl-2-(5-{5-[(7S)-7-{3-oxa-6-azabicyclo[3.1.1]heptan-6-yl}-6,7,8,9-tetrahydro-5H-benzo[7]annulen-2-yl]-1H-pyrrolo[2,3-b]pyridin-3-yl}pyridin-2-yl)benzamide]	< 100

Continued, values first:

IC50 [nM]	SMILES
< 100	Cc1cccnc1-c1ccc(-c2c[nH]c3ncc(-c4ccc5c(c4)CC[C@@H](N4CCCC4)CC5)cc23)cc1 [Example 173, 3-Methyl-2-(4-{5-[(7S)-7-(pyrrolidin-1-yl)-6,7,8,9-tetrahydro-5H-benzo[7]annulen-2-yl]-1H-pyrrolo[2,3-b]pyridin-3-yl}phenyl)pyridine]
< 100	Cc1cccnc1-c1ccc(-c2c[nH]c3ncc(-c4ccc5c(c4)CC[C@@](C)(N4CCC[C@H]4C)CC5)cc23)cc1 [Example 172, 3-Methyl-2-(4-{5-[(7S)-7-methyl-7-[(2R)-2-methylpyrrolidin-1-yl]-6,7,8,9-tetrahydro-5H-benzo[7]annulen-2-yl]-1H-pyrrolo[2,3-b]pyridin-3-yl}phenyl)pyridine]
< 100	C[C@@H]1CCCN1[C@@]1(C)CCc2ccc(-c3cnc4[nH]cc(-c5ccc(-c6ccccn6)cc5)c4c3)cc2CC1 [Example 156, 2-(4-{5-[(7S)-7-Methyl-7-[(2R)-2-methylpyrrolidin-1-yl]-6,7,8,9-tetrahydro-5H-benzo[7]annulen-2-yl]-1H-pyrrolo[2,3-b]pyridin-3-yl}phenyl)pyridine]
< 100	C[C@@H]1CCCN1[C@@]1(C)CCc2ccc(-c3cnc4[nH]nc(-c5ccc(-c6ncnn6C)cc5)c4c3)cc2CC1 [Example 112, 1-Methyl-5-(4-{5-[(7S)-7-methyl-7-[(2R)-2-methylpyrrolidin-1-yl]-6,7,8,9-tetrahydro-5H-benzo[7]annulen-2-yl]-1H-pyrazolo[3,4-b]pyridin-3-yl}phenyl)-1H-1,2,4-triazole]
< 100	CN(C)C(=O)c1cccc(-c2ccc(-c3n[nH]c4ncc(-c5ccc6c(c5)CC[C@@H](N5C7COCC5C7)CC6)cc34)cc2)n1 [Example 94, N,N-Dimethyl-6-(4-{5-[(7S)-7-{3-oxa-6-azabicyclo[3.1.1]heptan-6-yl}-6,7,8,9-tetrahydro-5H-benzo[7]annulen-2-yl]-2H-pyrazolo[3,4-b]pyridin-3-yl}phenyl)pyridine-2-carboxamide]
< 100	O=C(c1cccnc1-c1ccc(-c2c[nH]c3ncc(-c4ccc5c(c4)CC[C@@H](N4C6COCC4C6)CC5)cc23)cc1)N1CCCC1 [Example 171, 6-[(7S)-2-(3-{4-[3-(Pyrrolidine-1-carbonyl)pyridin-2-yl]phenyl}-1H-pyrrolo[2,3-b]pyridin-5-yl)-6,7,8,9-tetrahydro-5H-benzo[7]annulen-7-yl]-3-oxa-6-azabicyclo[3.1.1]heptane]
< 100	c1ccc(-n2cc(-c3n[nH]c4ncc(-c5ccc6c(c5)CC[C@@H](N5C7COCC5C7)CC6)cc34)cn2)nc1 [Example 168, 6-[(7S)-2-{3-[1-(Pyridin-2-yl)-1H-pyrazol-4-yl]-1H-pyrazolo[3,4-b]pyridin-5-yl}-6,7,8,9-tetrahydro-5H-benzo[7]annulen-7-yl]-3-oxa-6-azabicyclo[3.1.1]heptane]
< 100	CN(C)C(=O)c1cccnc1-c1ccc(-c2n[nH]c3ncc(-c4ccc5c(c4)CC[C@@H](N4C6COCC4C6)CC5)cc23)cc1 [Example 167, N,N-Dimethyl-2-(4-{5-[(7S)-7-{3-oxa-6-azabicyclo[3.1.1]heptan-6-yl}-6,7,8,9-tetrahydro-5H-benzo[7]annulen-2-yl]-1H-pyrazolo[3,4-b]pyridin-3-yl}phenyl)pyridine-3-carboxamide]
< 100	Cn1ccnc1-c1ccc(-c2n[nH]c3ncc(-c4ccc5c(c4)CC[C@@H](N4C6COCC4C6)CC5)cc23)cc1 [Example 111, 6-[(7S)-2-{3-[4-(1-Methyl-1H-imidazol-2-yl)phenyl]-1H-pyrazolo[3,4-b]pyridin-5-yl}-6,7,8,9-tetrahydro-5H-benzo[7]annulen-7-yl]-3-oxa-6-azabicyclo[3.1.1]heptane]

From patent US12195482B1 (Arcus Biosciences, Inc., priority 2022, dated 2025)
